The source of these data is publication PMC7433010, “Exploration of multi‐target effects of 3‐benzoyl‐5‐hydroxychromen‐2‐one in Alzheimer’s disease cell and mouse models” (Aging Cell, 2020).

Data set [1] is described as follows: MTT cytotoxicity in uninduced retinoic acid‐differentiated SH‐SY5Y cells. The format is cell-based. To be noted: human. The method, then: Licochalcone A and five derivative LM compounds were tested (Figure 1a). All six compounds were soluble up to 100 μM in a cell culture medium (Figure S1a). Based on molecular weight (MW), hydrogen bond donors (HBD), hydrogen bond acceptors (HBA), and calculated octanol/water partition coefficient (cLogP), all six compounds meet Lipinski's criteria in predicting oral bioavailability (Lipinski, Lombardo, Dominy, & Feeney, 1997) (Figure S1b). […] To choose the optimal treatment dose used for the best efficacy of the candidate compounds, a specific type of biphasic dose response of a compound called hormesis should take into consideration. Evidence has shown that a wide range of pharmaceutical products display a hermetic dose‐response feature, characterized by a low‐dose stimulation and a high‐dose inhibition (Calabrese et al., 2018; Concetta Scuto et al., 2019; Pilipenko et al., 2019). Therefore, we tested the compounds at a range of doses to find the optimal dose for the best therapeutic effect and the least cytotoxicity. Firstly, MTT assay was performed using uninduced ∆K280 TauRD‐DsRed 293 and retinoic acid‐differentiated SH‐SY5Y cells following treatment with the test compounds (0.1–10 μM) for 3 (for 293 cells) or 7 (for SH‐SY5Ycells) days. […] Congo red is an amyloidogenic dye known to reduce Aβ neurotoxicity (Lorenzo & Yankner, 1994).
Licochalcone A was purchased from Sigma-Aldrich, St. Louis, MO, USA. In-house LM compounds were synthesized and characterized by NMR spectrum as described (Lee et al., 2012, 2015, 2018). Tet-On ∆K280 TauRD-DsRed 293 and SH-SY5Y cells (Chang et al., 2016) were cultured in Dulbecco’s modified Eagles medium (DMEM) (293) or DMEM-F12 (SH-SY5Y) containing 10% fetal bovine serum (Invitrogen, Carlsbad, CA, USA), 5 μg/ml of blasticidin, and 100 μg/ml of hygromycin (InvivoGen, San Diego, CA, USA). Compound cytotoxicity was assessed by colorimetric assay for measuring cell metabolic activity. Briefly, 5 × 10^4 cells were plated (48-well plates), grown for 20 h, and treated with the test compounds ([…]). […], 20 µl of 3-(4,5-dimethylthiazol-2-yl)-2,5-diphenyltetrazolium bromide (MTT, 5 mg/ml in PBS; Sigma-Aldrich) was added to the cells and incubated at 37°C for 3 h. Then 200 µl of lysis buffer (10% Triton X-100, 0.1 N HCl, 18% isopropanol) was added and the absorbance of the insoluble product at OD 570 nm was measured by a microplate reader (FLx800 fluorescence microplate reader, Bio-Tek, Winooski, VT, USA). The half-maximal inhibitory concentration (IC50) was calculated using the interpolation method.
Figure S1. Test compounds. (a) Solubility (in cell culture medium) of test compounds. (b) Molecular weight (MW), hydrogen bond donor (HBD), hydrogen bond acceptor (HBA), calculated octanol-water partition coefficient (cLogP), polar surface area (PSA), and predicted blood-brain barrier (BBB) score of test compounds. (c) Cytotoxicity of test compounds against ∆K280 TauRD-DsRed 293 and SH-SY5Y cells using the MTT assay. Uninduced 293 cells were plated on day 1 and treated with 0.1–10 μM test compounds on day 2. Cell viability was measured on day 5 (n = 3). In addition, uninduced SH-SY5Y cells were seeded with all trans retinoic acid (RA; 10 µM) on day 1 and treated with 0.1–10 μM test compounds on day 2. Cell viability was measured on day 9 (n = 3). To normalize, the relative viability in compound untreated cells was set at 100%. IC50 values are listed.

The target of data set [2] is T1, His‐tagged ∆K280 TauRD protein (Homo sapiens, UniProt P10636, DEL597-597).
T1 construct: containing residues 244–372 of the full‐length 4R2N Tau441; added start Met (ATG codon in forward primer) (N); made in house; host or cells: E. coli BL21(DE3)pLysS
Put plainly: TEM examination of ΔK280 TauRD aggregates. The format is biochemical. To be noted: 10 µM. An excerpt:
For TauRD aggregation examination, the samples of formed fibrils without or with compound addition were placed on a 200-Mesh copper (holey-carbon) grid and viewed on a JEM-1230 transmission electron microscope (JEOL, Tokyo, Japan) at an accelerating voltage of 100 kV.
Figure S3. TauRD-His proteins and Tau aggregation monitored by thioflavin T fluorescence and TEM. (a) SDS-PAGE gel (left) and Western blot (right) of wild type (WT) and ΔK280 TauRD proteins from IPTG-induced bacterial cells. Wild type clone #3 and ΔK280 clone #2 (marked in red) were selected to prepare purified proteins for thioflavin T and TEM studies. (b) Thioflavin T binding assay for TauRD aggregation. TauRD protein (20 μM in 50 μl buffer) was incubated with congo red, licochalcone A, or LM compounds (1−10 μM) at 37°C for 48 h, and aggregation was monitored by measuring thioflavin T fluorescence intensity (n = 3). p values: comparisons between 0 h and 48 h (^###: p < 0.001), wild type versus ΔK280 (^&&&: p < 0.001), or with and without compound addition (**: p < 0.01, ***: p < 0.001). (one-way ANOVA with a post hoc Tukey test) (c) TEM examination of ΔK280 TauRD aggregation without or with congo red and LM-004 (10 μM) addition.

Where two headings read alike, the source gives them in different places.

T1 sequence (P10636 with tags, fused parts or gaps isoform P10636-8 DEL280-280): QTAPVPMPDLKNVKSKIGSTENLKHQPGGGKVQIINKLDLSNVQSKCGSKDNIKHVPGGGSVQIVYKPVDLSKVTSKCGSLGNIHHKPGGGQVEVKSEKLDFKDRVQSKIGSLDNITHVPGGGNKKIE

In data set [1], `COc1ccc(C(=O)/C=C/c2cc(Br)ccc2O)cc1` [LM‐004] registered an IC50 at 7 days of 4.8 µM. Moreover, the “Tau aggregates by TEM” value in data set [2] is on record as “reduced Tau aggregates”. In data set [1], `O=C(c1ccccc1)c1cc2c(O)cccc2oc1=O` [LM‐031, 3‐benzoyl‐5‐hydroxychromen‐2‐one] came in with an IC50 at 7 days of 6.8 µM. On to `Nc1c(/N=N/c2ccc(-c3ccc(/N=N/c4cc(S(=O)(=O)O)c5ccccc5c4N)cc3)cc2)cc(S(=O)(=O)O)c2ccccc12` [congo red, reference compound], for which, in data set [1], half-maximal inhibition (IC50 at 7 days) was put at 27.4 µM. In addition, the “Tau aggregates by TEM” value in data set [2] was “reduced Tau aggregates”.

As for `C=CC(C)(C)c1cc(/C=C/C(=O)c2ccc(O)cc2)c(OC)cc1O` [licochalcone A, reference compound], the half-maximal inhibitory concentration (IC50) at 7 days in data set [1] (uninduced retinoic acid‐differentiated SH‐SY5Y cells, 7 days treatment, read-out: IC50 (MTT cytotoxicity)) stood at 5.8 µM.

For orientation: IC50 means the concentration needed to halve the response being measured.
